What all share (assay type): functional, cell-based
One test concerns MDA-MB-231. The experiment in a line: Anti-proliferative activity against human MDA-MB-231 cells assessed as cell growth inhibition incubated for 72 hrs by MTT assay. The following applies: MDA-MB-231, 72 h.
In another test the test system is MCF7. As to the kind of experiment: Anti-proliferative activity against human MCF7 cells assessed as cell growth inhibition incubated for 72 hrs by MTT assay. As to conditions: MCF7, 72 h. (Tetrazolium dyes change colour on reduction, which living cells bring about.)
The subject of another test is Hs-578T. As to the kind of experiment: Anti-proliferative activity against human Hs-578T cells assessed as cell growth inhibition incubated for 72 hrs by MTT assay.
The test system of the next test is HCC1806. The experiment in a line: Anti-proliferative activity against human HCC1806 cells assessed as cell growth inhibition incubated for 72 hrs by MTT assay. As to conditions: HCC1806, 72 h.

31 compounds from ChEMBL document CHEMBL5550161, “Discovery of novel small molecules targeting the USP21/JAK2/STAT3 axis for the treatment of triple-negative breast cancer” (Eur J Med Chem, 2024) can be followed below.

pIC50: −log10 of the molar value.

Usually pIC50 stands for the negative decadic logarithm of the IC50, by convention in mol/L.

Turning to `COc1ccc2c(CCNC(=O)c3ccc(F)cc3Nc3cc(OC)c(OC)c(OC)c3)c[nH]c2c1`, the pIC50 is 4.33 in the test on MDA-MB-231, 4.39 with MCF7, less than 4.00 in the test on Hs-578T and 5.76 in the test on HCC1806.

As for `COc1cc(Nc2cccc(C)c2C(=O)NCCc2c[nH]c3ccccc23)cc(OC)c1OC`, the pIC50 with MDA-MB-231, with MCF7, in the test with Hs-578T and with HCC1806 was less than 4.00 in each case.

For `COc1cc(Nc2cc(F)ccc2C(=O)NCCc2c[nH]c3ccccc23)cc(OC)c1OC`, the pIC50 was 5.99 in the test with MDA-MB-231, 5.84 in the test with MCF7, 5.84 with Hs-578T and 5.62 in the test on HCC1806.

Consider `COc1cc(Nc2cc(F)ccc2C(=O)NCCc2c[nH]c3cc(F)cc(F)c23)cc(OC)c1OC`, for which the pIC50 is 5.83 with MDA-MB-231, 4.64 with MCF7, 4.58 with Hs-578T and 4.85 in the test with HCC1806.

Consider `COc1cc2[nH]cc(CCNC(=O)c3ccc(F)cc3Nc3cc(OC)c(OC)c(OC)c3)c2cc1OC`, for which the pIC50 with MDA-MB-231 was 4.03; with MCF7, 4.18; with Hs-578T it was less than 4.00; in the test on HCC1806, 4.04.

With `COc1cc(Nc2ccc(C(F)(F)F)cc2C(=O)NCCc2c[nH]c3ccccc23)cc(OC)c1OC`, the pIC50 in the test with MDA-MB-231 was 4.08; in the test with MCF7, 4.36; with Hs-578T it was less than 4.00; in the test on HCC1806, less than 4.00.

Consider `COc1cc(Nc2cc(F)ccc2C(=O)NCCc2c[nH]c3cc(F)ccc23)cc(OC)c1OC`, for which the pIC50 in the test on MDA-MB-231 is 5.58; in the test on MCF7, 5.29; in the test with Hs-578T it was 4.05; with HCC1806 it was 5.07.

`COc1cc(Nc2cc(F)ccc2C(=O)NCCc2c[nH]c3cccc(F)c23)cc(OC)c1OC`: the pIC50 in the test with MDA-MB-231 is 6.28; in the test with MCF7, 6.01; in the test with Hs-578T it was 5.73; in the test with HCC1806 it was 6.33.

Turning to `COc1cc(Nc2cc(F)c(F)cc2C(=O)NCCc2c[nH]c3ccccc23)cc(OC)c1OC`, the negative-log IC50 (pIC50) in the test with MDA-MB-231 was 4.38; in the test on MCF7, less than 4.00; in the test on Hs-578T, 5.36; in the test with HCC1806 it was 5.08.

Take `COc1cc(Nc2cc(F)ccc2C(=O)NCCc2c[nH]c3cccc(OC)c23)cc(OC)c1OC`: the pIC50 is 5.53 in the test with MDA-MB-231, 4.69 in the test with MCF7, 4.46 with Hs-578T and 4.74 with HCC1806.

For `COc1cc(Nc2cc(F)ccc2C(=O)NCCc2c[nH]c3c(F)cccc23)cc(OC)c1OC`, the pIC50 in the test with MDA-MB-231 was 6.43; in the test on MCF7 it was 6.28; in the test on Hs-578T it was 6.12; with HCC1806, 6.40.

With `COc1cc(Nc2cc(C(F)(F)F)ccc2C(=O)NCCc2c[nH]c3ccccc23)cc(OC)c1OC`, the pIC50 is 4.65 in the test on MDA-MB-231, 4.23 in the test on MCF7, 4.07 in the test on Hs-578T and 4.28 in the test with HCC1806.

Regarding `COc1cc(Nc2c(C(=O)NCCc3c[nH]c4ccccc34)ccc(F)c2F)cc(OC)c1OC`, the pIC50 is 4.07 in the test on MDA-MB-231, 4.11 in the test with MCF7, less than 4.00 in the test with Hs-578T and 4.05 with HCC1806.

`COc1cc(Nc2c(F)cccc2C(=O)NCCc2c[nH]c3ccccc23)cc(OC)c1OC`: the pIC50 in the test with MDA-MB-231, in the test on MCF7, in the test on Hs-578T and in the test with HCC1806 was less than 4.00 each time.

For the compound `COc1cc(Nc2cc(F)ccc2C(=O)NCCc2c[nH]c3cccc(Cl)c23)cc(OC)c1OC`, the pIC50 in the test on MDA-MB-231 was 5.70; with MCF7 it was 5.49; in the test on Hs-578T, 5.52; in the test with HCC1806, 5.74.

Turning to `COc1cc(Nc2cc(F)ccc2C(=O)NCCc2c[nH]c3c(C)cccc23)cc(OC)c1OC`, the pIC50 in the test on MDA-MB-231 was 5.71; with MCF7 it was 5.67; in the test with Hs-578T, 5.68; with HCC1806, 5.47.

As for `COc1cc(Nc2c(F)cc(F)cc2C(=O)NCCc2c[nH]c3ccccc23)cc(OC)c1OC`, the negative logarithm of the IC50 (pIC50) with MDA-MB-231, with MCF7, in the test on Hs-578T and in the test on HCC1806 was less than 4.00 in each case.

Regarding `COc1cc(Nc2cc(F)c(C)cc2C(=O)NCCc2c[nH]c3ccccc23)cc(OC)c1OC`, the pIC50 with MDA-MB-231 was 4.41; with MCF7, 4.96; with Hs-578T, less than 4.00; with HCC1806 it was 4.70.

Regarding `COc1cc(Nc2cccc(F)c2C(=O)NCCc2c[nH]c3ccccc23)cc(OC)c1OC`, the pIC50 in the test with MDA-MB-231 was 4.61; in the test on MCF7 it was less than 4.00; in the test on Hs-578T, 4.61; in the test with HCC1806 it was 5.49.

Take `COc1cc(Nc2cc(F)ccc2C(=O)NCCc2c[nH]c3ccc(F)cc23)cc(OC)c1OC`: the pIC50 in the test with MDA-MB-231 is 6.08; in the test with MCF7 it was 5.86; in the test with Hs-578T it was 5.86; with HCC1806, 5.62.

Take `COc1cc(Nc2cc(F)cc(C)c2C(=O)NCCc2c[nH]c3ccccc23)cc(OC)c1OC`: the pIC50 was 4.30 in the test with MDA-MB-231, 4.53 in the test with MCF7, less than 4.00 with Hs-578T and 4.15 in the test with HCC1806.

For the compound `COc1ccc2[nH]cc(CCNC(=O)c3ccc(F)cc3Nc3cc(OC)c(OC)c(OC)c3)c2c1`, the pIC50 is 5.33 with MDA-MB-231, 4.63 in the test on MCF7, less than 4.00 with Hs-578T and 4.75 in the test on HCC1806.

Take `COc1cc(Nc2cc(Cl)ccc2C(=O)NCCc2c[nH]c3ccccc23)cc(OC)c1OC`: the pIC50 is 5.59 in the test on MDA-MB-231, 5.57 in the test with MCF7, 4.88 with Hs-578T and 5.73 in the test with HCC1806.

With `COc1cc(Nc2cc(F)ccc2C(=O)NCCc2c[nH]c3cc(C)ccc23)cc(OC)c1OC`, the pIC50 in the test with MDA-MB-231 is 4.92; in the test with MCF7, 4.13; with Hs-578T, less than 4.00; in the test with HCC1806 it was 4.46.

As for `COc1cc(Nc2cc(Br)ccc2C(=O)NCCc2c[nH]c3ccccc23)cc(OC)c1OC`, the negative logarithm of the IC50 (pIC50) is 5.43 in the test with MDA-MB-231, 5.48 with MCF7, less than 4.00 in the test with Hs-578T and 5.36 in the test on HCC1806.

For `COc1cc(Nc2cccc(OC)c2C(=O)NCCc2c[nH]c3ccccc23)cc(OC)c1OC`, the pIC50 in the test on MDA-MB-231, with MCF7, with Hs-578T and in the test with HCC1806 was less than 4.00 each time.

`COc1cc(Nc2cccc(C(F)(F)F)c2C(=O)NCCc2c[nH]c3ccccc23)cc(OC)c1OC`: the pIC50 with MDA-MB-231 is less than 4.00; in the test with MCF7 it was 4.17; with Hs-578T, less than 4.00; with HCC1806, less than 4.00.

Turning to `COc1cc(Nc2cc(F)ccc2C(=O)NCCc2c[nH]c3c(OC)cccc23)cc(OC)c1OC`, the pIC50 in the test on MDA-MB-231 was 4.68; with MCF7, less than 4.00; in the test with Hs-578T, 5.54; in the test with HCC1806, 5.59.

Regarding `COc1ccc(Nc2cc(OC)c(OC)c(OC)c2)c(C(=O)NCCc2c[nH]c3ccccc23)c1`, the pIC50 was 4.09 in the test on MDA-MB-231, less than 4.00 in the test with MCF7, less than 4.00 in the test on Hs-578T and 4.52 in the test with HCC1806.

As to `COc1cc(Nc2cc(F)ccc2C(=O)NCCc2c[nH]c3ccc(Br)cc23)cc(OC)c1OC`, the pIC50 was 5.53 in the test on MDA-MB-231, 5.06 in the test on MCF7, 4.29 in the test on Hs-578T and 5.46 in the test on HCC1806.

As to `COc1cc(C)c2[nH]cc(CCNC(=O)c3ccc(F)cc3Nc3cc(OC)c(OC)c(OC)c3)c2c1`, the pIC50 in the test on MDA-MB-231 was 5.67; with MCF7 it was less than 4.00; in the test with Hs-578T it was 4.70; with HCC1806 it was 4.82.
